Reference: US10724099B2, “Multiplex methods to assay mixed cell populations simultaneously” (The Broad Institute, Inc., priority 2012, dated 2020)

Tests used:
JNK2 = target: T1, JNK2 (Homo sapiens, UniProt P45984); test: DiscoveRx KinomeScan binding; details: Entrez MAPK9
T1 construct: purchased DiscoveRx scanEDGE panel (KinomeScan)

MKNK1 = target: T2, MKNK1 (Homo sapiens, UniProt Q9BUB5); test: DiscoveRx KinomeScan binding
T2 construct: purchased DiscoveRx scanEDGE panel (KinomeScan)

p38---beta = target: T3, p38---beta (Homo sapiens, UniProt Q15759); test: DiscoveRx KinomeScan binding; details: Entrez MAPK11
T3 construct: purchased DiscoveRx scanEDGE panel (KinomeScan)

CSNK1D = target: T4, CSNK1D (Homo sapiens, UniProt P48730); test: DiscoveRx KinomeScan binding
T4 construct: purchased DiscoveRx scanEDGE panel

[1] = target: T5, full-length human aurora-B (Homo sapiens, UniProt Q96GD4); test: In vitro kinase assay (EMD Millipore KinaseProfiler); format: biochemical; details: 10 μM γ-33P-ATP, 30 μM AKRRRLSSLRA, 8 doses in duplicate
T5 construct: purchased EMD Millipore KinaseProfiler service
Description: (§1) In vitro kinase inhibition assays were then performed as follows. Incorporation of radioactivity from 10 μM γ-^33P-ATP was measured across 8 doses in duplicate by the EMD Millipore KinaseProfiler service (Billerica, Mass.) under published standard conditions with […]. Full-length human aurora-A was assayed with 200 μM LRRASLG (Kemptide); full-length human aurora-B with 30 μM […] (SEQ ID NO:5); and full-length human aurora-C with 30 μM […] (SEQ ID NO:6). IC50 values were modeled using least-squares and variable slope with Prism 6.0 software (GraphPad, San Diego, Calif.).

[2] = target: T6, full-length human aurora-C (Homo sapiens, UniProt Q9UQB9); test: as above; format: biochemical; details: 10 μM γ-33P-ATP, 30 μM AKRRRLSSLRA, 8 doses in duplicate
T6 construct: purchased EMD Millipore KinaseProfiler service
Description: as §1

[3] = target: T7, full-length human aurora-A (Homo sapiens, UniProt O14965); test: as above; format: biochemical; details: 10 μM γ-33P-ATP, 200 μM Kemptide, 8 doses in duplicate
T7 construct: Full-length human aurora-A was assayed; purchased EMD Millipore KinaseProfiler service
Description: as §1

SRC = target: T8, SRC (Homo sapiens, UniProt P12931); test: DiscoveRx KinomeScan binding
T8 construct: purchased DiscoveRx scanEDGE panel

[4] = target: T9, RSK2(Kin.Dom.1---N---terminal) (Homo sapiens, UniProt P51812); test: DiscoveRx KinomeScan binding; details: Entrez RPS6KA3
T9 construct: RSK2(Kin.Dom.1---N---terminal); purchased DiscoveRx scanEDGE panel

KIT(D816V) = target: T10, KIT(D816V) (Homo sapiens, UniProt P10721, D816V); test: DiscoveRx KinomeScan binding
T10 construct: purchased DiscoveRx scanEDGE panel (KinomeScan)

[5] = target: T11, JAK2(JH1domain---catalytic) (Homo sapiens, UniProt O60674); test: DiscoveRx KinomeScan binding
T11 construct: JAK2(JH1domain---catalytic); purchased DiscoveRx scanEDGE panel

IKK---beta = target: T12, IKK---beta (Homo sapiens, UniProt O14920); test: DiscoveRx KinomeScan binding; details: Entrez IKBKB
T12 construct: purchased DiscoveRx scanEDGE panel

EPHA2 = target: T13, EPHA2 (Homo sapiens, UniProt P29317); test: DiscoveRx KinomeScan binding
T13 construct: purchased DiscoveRx scanEDGE panel

MEK2 = target: T14, MEK2 (Homo sapiens, UniProt P36507); test: DiscoveRx KinomeScan binding; details: Entrez MAP2K2
T14 construct: purchased DiscoveRx scanEDGE panel (KinomeScan)

ZAP70 = target: T15, ZAP70 (Homo sapiens, UniProt P43403); test: DiscoveRx KinomeScan binding
T15 construct: purchased DiscoveRx (KinomeScan scanEDGE panel service)

PIK3C2B = target: T16, PIK3C2B (Homo sapiens, UniProt O00750); test: DiscoveRx KinomeScan binding
T16 construct: purchased DiscoveRx scanEDGE panel (KinomeScan)

TRKA = target: T17, TRKA (Homo sapiens, UniProt P04629); test: DiscoveRx KinomeScan binding; details: Entrez NTRK1
T17 construct: purchased DiscoveRx scanEDGE panel

[6] = target: T18, JAK3(JH1domain---catalytic) (Homo sapiens, UniProt P52333); test: DiscoveRx KinomeScan binding
T18 construct: JAK3(JH1domain---catalytic); purchased DiscoveRx scanEDGE panel

YANK3 = target: T19, YANK3 (Homo sapiens, UniProt Q86UX6); test: DiscoveRx KinomeScan binding; details: Entrez STK32C
T19 construct: purchased DiscoveRx (KinomeScan scanEDGE panel service)

FAK = target: T20, FAK (Homo sapiens, UniProt Q05397); test: DiscoveRx KinomeScan binding; details: Entrez PTK2
T20 construct: purchased DiscoveRx scanEDGE panel

[7] = target: T21, ABL1(E255K)---phosphorylated (Homo sapiens, UniProt P00519, E255K); test: DiscoveRx KinomeScan binding; details: Entrez ABL1
T21 construct: purchased DiscoveRx (KINOMEscan scanEDGE panel)

ABL1---phosphorylated = target: T22, ABL1---phosphorylated (Homo sapiens, UniProt P00519); test: DiscoveRx KinomeScan binding; details: Entrez ABL1
T22 construct: purchased DiscoveRx (KINOMEscan scanEDGE panel)

[8] = target: T23, ABL1(T315I)---phosphorylated (Homo sapiens, UniProt P00519, T315I); test: DiscoveRx KinomeScan binding; details: Entrez ABL1
T23 construct: purchased DiscoveRx (KINOMEscan scanEDGE panel)

AKT1 = target: T24, AKT1 (Homo sapiens, UniProt P31749); test: DiscoveRx KinomeScan binding
T24 construct: purchased DiscoveRx (KINOMEscan scanEDGE panel)

MLK1 = target: T25, MLK1 (Homo sapiens, UniProt P80192); test: DiscoveRx KinomeScan binding; details: Entrez MAP3K9
T25 construct: purchased DiscoveRx scanEDGE panel (KinomeScan)

PKAC---alpha = target: T26, PKAC---alpha (Homo sapiens, UniProt P17612); test: DiscoveRx KinomeScan binding; details: Entrez PRKACA
T26 construct: purchased DiscoveRx scanEDGE panel

PIM3 = target: T27, PIM3 (Homo sapiens, UniProt Q86V86); test: DiscoveRx KinomeScan binding
T27 construct: purchased DiscoveRx scanEDGE panel

PLK3 = target: T28, PLK3 (Homo sapiens, UniProt Q9H4B4); test: DiscoveRx KinomeScan binding
T28 construct: purchased DiscoveRx scanEDGE panel

PIK3CG = target: T29, PIK3CG (Homo sapiens, UniProt P48736); test: DiscoveRx KinomeScan binding
T29 construct: purchased DiscoveRx scanEDGE panel

HCT-116 cells = test: DNA content by propidium iodide flow cytometry; format: cell-based; details: 10 μM, 24 hours or 48 hours
Description: In addition, HCT-116 cells were treated with 10 μM of DMSO, or the Aurora Kinase Inhibitors barasertib, GSK1070916, MLN8054, BRD-7880, or tozasertib. 24 hours or 48 hours following treatment, cells were stained with propidium iodide and DNA content per cell was assessed using a Becton Dickinson LSR II flow cytometer.

FLT3 = target: T30, FLT3 (Homo sapiens, UniProt P36888); test: DiscoveRx KinomeScan binding
T30 construct: purchased DiscoveRx scanEDGE panel

CHEK1 = target: T31, CHEK1 (Homo sapiens, UniProt O14757); test: DiscoveRx KinomeScan binding
T31 construct: purchased DiscoveRx scanEDGE panel

T6 sequence (Q9UQB9 whole entry): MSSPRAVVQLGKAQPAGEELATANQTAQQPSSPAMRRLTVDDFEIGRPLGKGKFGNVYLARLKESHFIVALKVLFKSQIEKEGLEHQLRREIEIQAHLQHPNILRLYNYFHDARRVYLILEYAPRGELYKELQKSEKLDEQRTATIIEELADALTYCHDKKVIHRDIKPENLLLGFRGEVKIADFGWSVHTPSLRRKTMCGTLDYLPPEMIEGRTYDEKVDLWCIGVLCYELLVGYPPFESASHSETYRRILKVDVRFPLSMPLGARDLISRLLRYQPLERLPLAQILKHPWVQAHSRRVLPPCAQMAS
T13 sequence (P29317 24-976): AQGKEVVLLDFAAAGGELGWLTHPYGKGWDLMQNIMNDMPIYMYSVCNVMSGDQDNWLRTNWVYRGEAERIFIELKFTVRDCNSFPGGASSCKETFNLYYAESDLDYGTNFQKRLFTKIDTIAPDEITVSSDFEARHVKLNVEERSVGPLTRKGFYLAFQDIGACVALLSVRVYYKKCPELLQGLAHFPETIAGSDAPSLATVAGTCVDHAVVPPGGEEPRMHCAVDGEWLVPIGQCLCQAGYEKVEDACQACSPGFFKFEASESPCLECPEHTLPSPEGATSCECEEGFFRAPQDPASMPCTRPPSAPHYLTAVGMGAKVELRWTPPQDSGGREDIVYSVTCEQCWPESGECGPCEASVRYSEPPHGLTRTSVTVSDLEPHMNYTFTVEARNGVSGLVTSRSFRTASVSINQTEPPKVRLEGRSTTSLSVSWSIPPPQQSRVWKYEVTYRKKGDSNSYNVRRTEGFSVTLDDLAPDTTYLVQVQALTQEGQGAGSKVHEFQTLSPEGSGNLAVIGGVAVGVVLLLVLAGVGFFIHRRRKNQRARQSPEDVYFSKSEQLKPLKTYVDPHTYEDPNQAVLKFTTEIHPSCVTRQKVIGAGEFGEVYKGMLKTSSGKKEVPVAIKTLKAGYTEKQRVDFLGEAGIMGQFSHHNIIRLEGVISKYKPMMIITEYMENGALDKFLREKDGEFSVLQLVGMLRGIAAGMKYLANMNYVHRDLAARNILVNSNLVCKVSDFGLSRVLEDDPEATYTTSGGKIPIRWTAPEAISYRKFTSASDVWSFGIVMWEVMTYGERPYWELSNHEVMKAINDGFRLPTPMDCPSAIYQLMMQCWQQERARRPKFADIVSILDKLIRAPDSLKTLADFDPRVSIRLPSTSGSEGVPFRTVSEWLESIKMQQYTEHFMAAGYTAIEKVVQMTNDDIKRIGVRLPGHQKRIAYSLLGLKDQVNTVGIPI
T19 sequence (Q86UX6 whole entry): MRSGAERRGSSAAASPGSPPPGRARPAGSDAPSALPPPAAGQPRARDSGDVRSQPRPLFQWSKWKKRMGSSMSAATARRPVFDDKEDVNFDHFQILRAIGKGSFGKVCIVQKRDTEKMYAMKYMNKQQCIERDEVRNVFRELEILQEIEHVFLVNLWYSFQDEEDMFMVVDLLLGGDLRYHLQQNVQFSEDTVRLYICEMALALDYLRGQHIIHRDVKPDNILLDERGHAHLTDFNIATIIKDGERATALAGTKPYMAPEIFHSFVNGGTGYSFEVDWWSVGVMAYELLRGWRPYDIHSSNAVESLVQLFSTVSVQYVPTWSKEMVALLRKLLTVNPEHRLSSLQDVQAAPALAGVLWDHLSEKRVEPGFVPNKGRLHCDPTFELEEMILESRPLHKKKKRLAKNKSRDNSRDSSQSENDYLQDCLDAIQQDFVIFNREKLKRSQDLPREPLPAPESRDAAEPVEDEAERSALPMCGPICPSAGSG
T5 sequence (Q96GD4 whole entry): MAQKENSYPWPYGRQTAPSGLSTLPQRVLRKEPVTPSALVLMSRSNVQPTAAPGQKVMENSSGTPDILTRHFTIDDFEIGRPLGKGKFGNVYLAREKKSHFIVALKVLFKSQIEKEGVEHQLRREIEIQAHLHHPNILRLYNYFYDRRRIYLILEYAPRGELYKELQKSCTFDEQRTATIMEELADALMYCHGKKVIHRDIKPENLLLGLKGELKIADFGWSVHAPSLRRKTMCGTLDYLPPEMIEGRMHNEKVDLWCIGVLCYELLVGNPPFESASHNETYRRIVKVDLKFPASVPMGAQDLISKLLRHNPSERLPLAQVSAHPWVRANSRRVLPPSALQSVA
T8 sequence (P12931 whole entry): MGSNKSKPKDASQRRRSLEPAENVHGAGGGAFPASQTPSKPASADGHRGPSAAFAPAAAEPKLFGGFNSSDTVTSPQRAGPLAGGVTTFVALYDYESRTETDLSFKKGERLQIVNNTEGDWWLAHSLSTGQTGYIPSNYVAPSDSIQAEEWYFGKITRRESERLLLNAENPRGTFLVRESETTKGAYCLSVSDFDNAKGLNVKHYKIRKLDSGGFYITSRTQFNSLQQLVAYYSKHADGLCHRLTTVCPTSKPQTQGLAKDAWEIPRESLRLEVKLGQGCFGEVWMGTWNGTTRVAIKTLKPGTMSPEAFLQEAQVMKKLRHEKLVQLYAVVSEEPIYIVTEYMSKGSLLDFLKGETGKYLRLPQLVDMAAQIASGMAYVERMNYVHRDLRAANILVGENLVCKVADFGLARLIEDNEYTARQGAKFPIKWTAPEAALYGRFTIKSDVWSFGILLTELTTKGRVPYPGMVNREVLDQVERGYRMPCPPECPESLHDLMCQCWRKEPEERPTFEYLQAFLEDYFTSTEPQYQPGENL
T29 sequence (P48736 whole entry): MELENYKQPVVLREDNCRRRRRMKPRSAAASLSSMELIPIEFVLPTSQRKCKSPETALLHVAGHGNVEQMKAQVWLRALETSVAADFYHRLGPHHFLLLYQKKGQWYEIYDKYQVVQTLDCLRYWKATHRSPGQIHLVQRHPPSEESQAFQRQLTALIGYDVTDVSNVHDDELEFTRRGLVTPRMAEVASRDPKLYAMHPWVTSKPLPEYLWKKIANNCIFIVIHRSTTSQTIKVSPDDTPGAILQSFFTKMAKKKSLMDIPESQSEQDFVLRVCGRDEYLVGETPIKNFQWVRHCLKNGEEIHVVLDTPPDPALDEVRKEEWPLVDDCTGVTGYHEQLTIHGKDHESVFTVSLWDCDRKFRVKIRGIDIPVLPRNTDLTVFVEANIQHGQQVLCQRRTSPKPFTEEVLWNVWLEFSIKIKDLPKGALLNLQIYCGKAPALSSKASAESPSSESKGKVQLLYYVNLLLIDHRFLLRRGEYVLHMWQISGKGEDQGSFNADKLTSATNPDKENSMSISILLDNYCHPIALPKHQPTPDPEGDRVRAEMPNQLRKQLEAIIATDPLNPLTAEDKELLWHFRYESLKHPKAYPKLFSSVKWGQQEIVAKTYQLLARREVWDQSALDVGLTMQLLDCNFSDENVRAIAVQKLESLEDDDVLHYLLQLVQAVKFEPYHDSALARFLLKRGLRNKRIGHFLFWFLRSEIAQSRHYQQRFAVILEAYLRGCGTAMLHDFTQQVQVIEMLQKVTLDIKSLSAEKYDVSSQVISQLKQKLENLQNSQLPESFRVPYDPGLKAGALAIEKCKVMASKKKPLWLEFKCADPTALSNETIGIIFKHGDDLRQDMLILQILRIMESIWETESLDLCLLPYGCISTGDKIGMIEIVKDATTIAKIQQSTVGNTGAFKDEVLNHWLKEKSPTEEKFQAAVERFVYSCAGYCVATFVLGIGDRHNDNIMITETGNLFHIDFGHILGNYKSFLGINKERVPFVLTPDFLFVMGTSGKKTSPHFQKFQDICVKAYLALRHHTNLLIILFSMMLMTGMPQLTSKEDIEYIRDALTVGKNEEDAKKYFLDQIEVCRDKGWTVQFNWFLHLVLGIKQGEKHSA
T10 sequence (P10721 26-976 D816V): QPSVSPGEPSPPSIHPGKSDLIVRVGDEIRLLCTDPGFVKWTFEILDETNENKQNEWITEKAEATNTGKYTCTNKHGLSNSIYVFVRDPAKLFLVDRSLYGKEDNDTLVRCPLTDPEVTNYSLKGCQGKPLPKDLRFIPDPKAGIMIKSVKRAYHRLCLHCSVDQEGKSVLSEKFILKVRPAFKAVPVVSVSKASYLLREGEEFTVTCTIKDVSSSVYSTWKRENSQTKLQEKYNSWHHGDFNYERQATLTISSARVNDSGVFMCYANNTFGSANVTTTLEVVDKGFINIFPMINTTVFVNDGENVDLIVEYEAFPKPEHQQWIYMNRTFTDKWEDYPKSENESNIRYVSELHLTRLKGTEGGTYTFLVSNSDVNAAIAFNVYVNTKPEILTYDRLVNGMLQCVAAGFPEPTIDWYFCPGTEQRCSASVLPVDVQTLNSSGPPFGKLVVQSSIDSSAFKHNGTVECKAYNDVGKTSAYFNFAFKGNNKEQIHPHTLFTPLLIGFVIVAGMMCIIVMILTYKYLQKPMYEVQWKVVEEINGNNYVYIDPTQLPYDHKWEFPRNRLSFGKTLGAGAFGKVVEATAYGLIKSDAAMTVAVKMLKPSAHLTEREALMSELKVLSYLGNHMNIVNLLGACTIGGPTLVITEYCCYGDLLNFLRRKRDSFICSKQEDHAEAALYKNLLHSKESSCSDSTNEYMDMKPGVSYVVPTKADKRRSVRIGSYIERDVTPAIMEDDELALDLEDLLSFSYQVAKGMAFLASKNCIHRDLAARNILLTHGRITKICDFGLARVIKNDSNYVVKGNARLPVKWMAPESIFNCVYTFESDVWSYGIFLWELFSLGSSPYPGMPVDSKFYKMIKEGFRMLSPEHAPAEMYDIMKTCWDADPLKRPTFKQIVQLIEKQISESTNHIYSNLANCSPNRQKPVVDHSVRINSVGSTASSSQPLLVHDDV
T9 sequence (P51812 68-327 limits assumed): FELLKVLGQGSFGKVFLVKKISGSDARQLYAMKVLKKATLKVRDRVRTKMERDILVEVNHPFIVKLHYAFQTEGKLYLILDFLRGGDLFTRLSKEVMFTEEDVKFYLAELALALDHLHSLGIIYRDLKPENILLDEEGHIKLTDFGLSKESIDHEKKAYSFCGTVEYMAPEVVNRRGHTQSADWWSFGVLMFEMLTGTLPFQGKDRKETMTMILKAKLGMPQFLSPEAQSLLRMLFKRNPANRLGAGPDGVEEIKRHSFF

COc1ccc(NC(=O)Nc2ccc3c(c2)C(=O)N([C@@H](C)CO)C[C@H](C)[C@H](CN(C)Cc2ccc4c(c2)OCO4)O3)cc1 [BRD-7880]
Percent Control (JNK2): 89% | Percent Control (MKNK1): 87% | Percent Control (p38---beta): 87% | Percent Control (CSNK1D): 100% | IC50 [1]: 7 nM | IC50 [2]: 12 nM | IC50 [3]: 2150 nM | Percent Control (SRC): 81% | Percent Control [4]: 80% | Percent Control (KIT(D816V)): 72% | Percent Control [5]: 98% | Percent Control (IKK---beta): 68% | Percent Control (EPHA2): 86% | Percent Control (MEK2): 73% | Percent Control (ZAP70): 93% | Percent Control (PIK3C2B): 96% | Percent Control (TRKA): 84% | Percent Control [6]: 66% | Percent Control (YANK3): 91% | Percent Control (FAK): 100% | Percent Control [7]: 80% | Percent Control (ABL1---phosphorylated): 88% | Percent Control [8]: 44% | Percent Control (AKT1): 87% | Percent Control (MLK1): 91% | Percent Control (PKAC---alpha): 69% | Percent Control (PIM3): 72% | Percent Control (PLK3): 48% | Percent Control (PIK3CG): 100% | DNA content per cell (HCT-116 cells): increased DNA content | Percent Control (FLT3): 65% | Percent Control (CHEK1): 100%
